Publication PMC10600239, “Selective MCL-1 inhibitor ABBV-467 is efficacious in tumor models but is associated with cardiac troponin increases in patients” (Communications Medicine, 2023)
Like-named read-outs stand apart in the source and are kept apart here.

Key:
Test in all cases: Off-target profiling (Supplementary Data 1)
[1] = target: off-target receptors, ion channels, and transporters (Homo sapiens, UniProt Q9UM73); details: TR-FRET Kinome; Millipore A-1167389.7 .05(Subs Conc)
[2] = target: off-target receptors, ion channels, and transporters (Homo sapiens, UniProt P07333); details: TR-FRET Kinome; Invitrogen A-1167389.7 .004(Subs Conc)
[3] = target: off-target receptors, ion channels, and transporters (Homo sapiens, UniProt P45983); details: TR-FRET Kinome; Invitrogen A-1196442.2 .1(Subs Conc)
[4] = target: off-target receptors, ion channels, and transporters (Homo sapiens, UniProt O75716); details: TR-FRET Kinome; Invitrogen A-1213250.2 .0125(Subs Conc)
[5] = target: off-target receptors, ion channels, and transporters (Homo sapiens, UniProt Q08345); details: TR-FRET Kinome; Invitrogen A-1196581.2 .003(Subs Conc)
[6] = target: off-target receptors, ion channels, and transporters (Homo sapiens, UniProt P24941); details: TR-FRET Kinome; Invitrogen A-1233106.2 .025(Subs Conc)
[7] = target: off-target receptors, ion channels, and transporters (Homo sapiens, UniProt P49336); details: TR-FRET Kinome; Invitrogen A-1167389.7 .025(Subs Conc)
[8] = target: off-target receptors, ion channels, and transporters; details: for EC50: Bioprofiling 6pt Ag
[9] = target: off-target receptors, ion channels, and transporters (Homo sapiens, UniProt P48729); details: TR-FRET Kinome; Invitrogen A-1180691.2 .05(Subs Conc)
[10] = target: off-target receptors, ion channels, and transporters (Homo sapiens, UniProt P34947); details: TR-FRET Kinome; Invitrogen A-1180691.2 .1(Subs Conc)
[11] = target: off-target receptors, ion channels, and transporters (Homo sapiens, UniProt P06239); details: TR-FRET Kinome; Invitrogen A-1167389.7 .1(Subs Conc)
[12] = target: off-target receptors, ion channels, and transporters (Homo sapiens, UniProt Q07912); details: TR-FRET Kinome; Invitrogen A-1169612.6 .025(Subs Conc)
[13] = target: off-target receptors, ion channels, and transporters (Homo sapiens, UniProt O43293); details: TR-FRET Kinome; Invitrogen A-1180691.2 .1(Subs Conc)
[14] = target: off-target receptors, ion channels, and transporters (Homo sapiens, UniProt Q9UHD2); details: TR-FRET Kinome; Invitrogen A-1167389.7 .00625(Subs Conc)
[15] = target: off-target receptors, ion channels, and transporters (Homo sapiens, UniProt Q9UL54); details: TR-FRET Kinome; Invitrogen A-1169612.6 .2(Subs Conc)
[16] = target: off-target receptors, ion channels, and transporters (Homo sapiens, UniProt P50750); details: TR-FRET Kinome; Invitrogen A-1180691.2 .01(Subs Conc)
[17] = target: off-target receptors, ion channels, and transporters (Homo sapiens, UniProt Q06187); details: TR-FRET Kinome; Invitrogen A-1167389.7 .2(Subs Conc)
[18] = target: off-target receptors, ion channels, and transporters (Homo sapiens, UniProt Q92918); details: TR-FRET Kinome; SignalChem A-1169612.6 .025(Subs Conc)
[19] = target: off-target receptors, ion channels, and transporters (Homo sapiens, UniProt P21554)
[20] = target: off-target receptors, ion channels, and transporters (Homo sapiens, UniProt P08581); details: TR-FRET Kinome; Invitrogen A-1196581.2 .003(Subs Conc)
[21] = target: off-target receptors, ion channels, and transporters (Homo sapiens, UniProt P29376); details: TR-FRET Kinome; Invitrogen A-1224615.7 .0125(Subs Conc)
[22] = target: off-target receptors, ion channels, and transporters (Homo sapiens, UniProt P15056); details: TR-FRET Kinome; Invitrogen A-1196442.2 .05(Subs Conc)
[23] = target: off-target receptors, ion channels, and transporters (Homo sapiens, UniProt P41240); details: TR-FRET Kinome; SignalChem A-1196581.2 .002(Subs Conc)
[24] = target: off-target receptors, ion channels, and transporters (Homo sapiens, UniProt O00141); details: TR-FRET Kinome; Millipore A-1213250.2 .03(Subs Conc)
[25] = target: off-target receptors, ion channels, and transporters (Homo sapiens, UniProt O94806); details: TR-FRET Kinome; Invitrogen A-1169612.6 .2(Subs Conc)
Sequence of off-target receptors, ion channels, and transporters (Homo sapiens, UniProt O94806) (O94806 whole entry): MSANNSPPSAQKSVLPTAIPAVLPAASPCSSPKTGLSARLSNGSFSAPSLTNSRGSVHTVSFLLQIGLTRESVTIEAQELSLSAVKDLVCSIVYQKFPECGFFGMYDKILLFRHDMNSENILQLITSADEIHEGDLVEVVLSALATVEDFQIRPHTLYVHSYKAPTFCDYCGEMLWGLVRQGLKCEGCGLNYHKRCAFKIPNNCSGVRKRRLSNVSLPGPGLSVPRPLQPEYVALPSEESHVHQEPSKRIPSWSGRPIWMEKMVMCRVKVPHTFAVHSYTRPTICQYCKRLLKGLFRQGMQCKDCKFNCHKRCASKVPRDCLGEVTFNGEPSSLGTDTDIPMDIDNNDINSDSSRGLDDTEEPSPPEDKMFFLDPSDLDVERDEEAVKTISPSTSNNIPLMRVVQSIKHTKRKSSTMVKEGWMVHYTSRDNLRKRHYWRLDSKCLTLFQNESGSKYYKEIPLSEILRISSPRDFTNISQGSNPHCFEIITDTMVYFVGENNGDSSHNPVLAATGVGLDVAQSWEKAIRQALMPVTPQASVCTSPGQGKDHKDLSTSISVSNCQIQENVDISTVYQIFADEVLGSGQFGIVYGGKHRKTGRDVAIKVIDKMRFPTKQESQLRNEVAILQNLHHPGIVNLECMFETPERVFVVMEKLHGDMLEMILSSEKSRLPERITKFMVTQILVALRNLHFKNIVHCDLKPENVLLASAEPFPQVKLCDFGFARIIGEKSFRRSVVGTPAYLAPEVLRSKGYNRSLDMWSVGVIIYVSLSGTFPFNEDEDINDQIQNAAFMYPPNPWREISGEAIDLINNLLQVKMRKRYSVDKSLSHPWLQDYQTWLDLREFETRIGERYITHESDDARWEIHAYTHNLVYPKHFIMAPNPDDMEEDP

Sequence of off-target receptors, ion channels, and transporters (Homo sapiens, UniProt P21554) (P21554 whole entry): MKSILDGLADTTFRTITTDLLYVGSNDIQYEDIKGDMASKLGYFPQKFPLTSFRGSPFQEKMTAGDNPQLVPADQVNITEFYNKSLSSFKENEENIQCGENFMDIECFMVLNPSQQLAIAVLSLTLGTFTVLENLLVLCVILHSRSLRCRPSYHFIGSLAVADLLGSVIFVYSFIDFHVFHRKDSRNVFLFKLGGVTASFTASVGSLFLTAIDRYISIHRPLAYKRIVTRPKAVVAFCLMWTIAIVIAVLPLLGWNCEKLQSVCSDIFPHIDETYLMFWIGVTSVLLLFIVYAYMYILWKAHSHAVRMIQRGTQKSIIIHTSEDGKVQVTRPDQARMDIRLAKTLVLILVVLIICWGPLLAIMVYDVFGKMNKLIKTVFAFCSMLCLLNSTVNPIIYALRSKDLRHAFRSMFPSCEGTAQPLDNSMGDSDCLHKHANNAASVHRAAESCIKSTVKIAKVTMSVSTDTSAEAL
Sequence of off-target receptors, ion channels, and transporters (Homo sapiens, UniProt Q92918) (Q92918 whole entry): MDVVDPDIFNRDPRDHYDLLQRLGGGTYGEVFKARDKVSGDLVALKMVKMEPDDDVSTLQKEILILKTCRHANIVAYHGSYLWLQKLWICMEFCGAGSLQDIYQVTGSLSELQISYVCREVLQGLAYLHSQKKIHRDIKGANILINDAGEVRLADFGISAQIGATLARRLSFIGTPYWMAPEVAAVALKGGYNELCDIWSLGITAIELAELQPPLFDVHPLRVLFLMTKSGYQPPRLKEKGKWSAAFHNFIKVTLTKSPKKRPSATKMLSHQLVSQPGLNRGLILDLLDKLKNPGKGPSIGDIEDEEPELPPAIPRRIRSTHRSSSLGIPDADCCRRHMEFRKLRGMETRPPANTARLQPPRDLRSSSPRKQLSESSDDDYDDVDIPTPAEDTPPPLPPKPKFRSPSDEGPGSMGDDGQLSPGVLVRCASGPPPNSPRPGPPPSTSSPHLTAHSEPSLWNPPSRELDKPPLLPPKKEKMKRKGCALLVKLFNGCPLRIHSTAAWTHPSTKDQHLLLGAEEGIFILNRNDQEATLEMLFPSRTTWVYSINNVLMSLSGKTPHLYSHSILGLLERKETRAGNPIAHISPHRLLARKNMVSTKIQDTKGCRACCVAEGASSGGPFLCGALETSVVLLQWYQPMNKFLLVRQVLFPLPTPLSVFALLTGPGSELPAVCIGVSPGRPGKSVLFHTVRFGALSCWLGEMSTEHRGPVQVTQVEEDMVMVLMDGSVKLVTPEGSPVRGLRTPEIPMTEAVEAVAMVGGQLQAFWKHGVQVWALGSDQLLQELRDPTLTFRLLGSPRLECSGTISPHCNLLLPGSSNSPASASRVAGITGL
Sequence of off-target receptors, ion channels, and transporters (Homo sapiens, UniProt Q07912) (Q07912 whole entry): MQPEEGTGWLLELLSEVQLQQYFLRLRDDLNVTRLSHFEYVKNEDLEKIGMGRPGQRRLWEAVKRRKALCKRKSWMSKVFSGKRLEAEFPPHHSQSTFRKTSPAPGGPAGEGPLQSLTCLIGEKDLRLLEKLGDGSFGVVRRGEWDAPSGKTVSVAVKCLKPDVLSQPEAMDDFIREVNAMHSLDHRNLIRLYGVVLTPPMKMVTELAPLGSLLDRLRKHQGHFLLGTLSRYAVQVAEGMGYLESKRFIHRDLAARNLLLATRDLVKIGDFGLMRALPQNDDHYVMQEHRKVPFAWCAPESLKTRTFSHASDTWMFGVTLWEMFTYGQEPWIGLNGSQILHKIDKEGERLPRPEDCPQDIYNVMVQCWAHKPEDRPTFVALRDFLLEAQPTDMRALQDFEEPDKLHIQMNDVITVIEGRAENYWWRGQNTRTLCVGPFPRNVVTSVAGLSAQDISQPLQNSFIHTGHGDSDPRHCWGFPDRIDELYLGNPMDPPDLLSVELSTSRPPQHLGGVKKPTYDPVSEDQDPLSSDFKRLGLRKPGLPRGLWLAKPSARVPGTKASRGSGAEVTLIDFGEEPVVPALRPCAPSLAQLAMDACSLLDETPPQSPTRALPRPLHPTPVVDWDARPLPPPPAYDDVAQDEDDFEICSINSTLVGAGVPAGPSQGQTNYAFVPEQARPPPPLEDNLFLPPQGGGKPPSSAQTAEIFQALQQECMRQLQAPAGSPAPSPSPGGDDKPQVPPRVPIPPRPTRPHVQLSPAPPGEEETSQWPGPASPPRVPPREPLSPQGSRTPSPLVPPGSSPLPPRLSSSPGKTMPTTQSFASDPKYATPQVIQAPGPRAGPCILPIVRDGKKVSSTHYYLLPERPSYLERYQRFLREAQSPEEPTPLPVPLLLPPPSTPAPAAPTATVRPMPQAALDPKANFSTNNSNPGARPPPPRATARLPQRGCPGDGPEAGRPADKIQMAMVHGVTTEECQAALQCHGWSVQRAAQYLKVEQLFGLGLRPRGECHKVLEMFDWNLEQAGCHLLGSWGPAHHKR
Sequence of off-target receptors, ion channels, and transporters (Homo sapiens, UniProt P45983) (P45983 whole entry): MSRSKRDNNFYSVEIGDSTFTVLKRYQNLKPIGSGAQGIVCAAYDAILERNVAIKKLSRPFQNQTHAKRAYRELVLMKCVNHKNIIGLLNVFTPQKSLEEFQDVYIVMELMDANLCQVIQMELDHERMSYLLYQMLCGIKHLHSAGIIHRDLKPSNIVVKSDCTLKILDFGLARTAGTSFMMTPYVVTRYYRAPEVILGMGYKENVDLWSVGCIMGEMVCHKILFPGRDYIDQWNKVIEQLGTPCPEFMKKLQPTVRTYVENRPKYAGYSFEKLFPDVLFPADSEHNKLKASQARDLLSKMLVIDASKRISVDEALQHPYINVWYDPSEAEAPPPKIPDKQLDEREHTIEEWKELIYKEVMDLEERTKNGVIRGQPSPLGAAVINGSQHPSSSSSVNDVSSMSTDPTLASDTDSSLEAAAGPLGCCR
Sequence of off-target receptors, ion channels, and transporters (Homo sapiens, UniProt P15056) (P15056 whole entry): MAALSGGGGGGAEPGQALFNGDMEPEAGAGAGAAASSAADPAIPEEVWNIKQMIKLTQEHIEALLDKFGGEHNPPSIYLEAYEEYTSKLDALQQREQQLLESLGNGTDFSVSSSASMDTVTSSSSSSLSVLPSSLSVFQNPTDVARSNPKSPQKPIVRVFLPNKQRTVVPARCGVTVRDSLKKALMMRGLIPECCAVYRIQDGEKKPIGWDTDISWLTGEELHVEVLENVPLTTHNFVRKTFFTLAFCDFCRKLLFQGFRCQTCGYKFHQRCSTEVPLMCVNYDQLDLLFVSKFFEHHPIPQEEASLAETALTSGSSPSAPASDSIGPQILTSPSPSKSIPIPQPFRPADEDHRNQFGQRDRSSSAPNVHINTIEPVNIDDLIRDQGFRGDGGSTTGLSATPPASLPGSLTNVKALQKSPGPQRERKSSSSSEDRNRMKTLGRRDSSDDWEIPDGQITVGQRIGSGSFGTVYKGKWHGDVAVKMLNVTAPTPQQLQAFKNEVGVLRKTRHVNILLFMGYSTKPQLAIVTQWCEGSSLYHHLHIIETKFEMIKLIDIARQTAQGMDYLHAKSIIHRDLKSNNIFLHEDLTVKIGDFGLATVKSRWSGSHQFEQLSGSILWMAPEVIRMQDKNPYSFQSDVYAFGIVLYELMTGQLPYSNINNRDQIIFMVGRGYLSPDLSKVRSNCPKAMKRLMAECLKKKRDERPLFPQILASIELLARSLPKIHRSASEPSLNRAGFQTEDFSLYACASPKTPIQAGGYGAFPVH
Sequence of off-target receptors, ion channels, and transporters (Homo sapiens, UniProt P34947) (P34947 whole entry): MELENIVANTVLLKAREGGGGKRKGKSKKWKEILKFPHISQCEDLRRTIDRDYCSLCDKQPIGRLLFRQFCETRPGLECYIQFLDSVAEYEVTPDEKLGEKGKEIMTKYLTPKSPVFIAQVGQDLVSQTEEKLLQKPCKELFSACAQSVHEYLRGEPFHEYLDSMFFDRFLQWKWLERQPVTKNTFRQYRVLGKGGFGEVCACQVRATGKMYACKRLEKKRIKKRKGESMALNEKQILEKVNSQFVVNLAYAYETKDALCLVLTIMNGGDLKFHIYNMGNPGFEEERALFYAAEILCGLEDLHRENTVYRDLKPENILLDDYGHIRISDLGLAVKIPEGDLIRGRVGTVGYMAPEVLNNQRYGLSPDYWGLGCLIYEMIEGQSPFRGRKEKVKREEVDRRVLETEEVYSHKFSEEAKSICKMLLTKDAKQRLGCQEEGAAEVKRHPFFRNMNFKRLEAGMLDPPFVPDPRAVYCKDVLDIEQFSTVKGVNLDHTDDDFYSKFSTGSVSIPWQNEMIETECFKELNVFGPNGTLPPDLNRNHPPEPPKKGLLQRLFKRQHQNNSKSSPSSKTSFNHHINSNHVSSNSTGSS

Question: Which ALK - IC50 [1] does the source give for `Cc1c(Cl)c2c(Cl)c(C)c1-c1c(-c3ccc(F)cc3)sc3ncnc(c13)O[C@@H](C(=O)O)Cc1cc(ccc1OCc1ccnc(-c3ccc(OC[C@H]4COCCO4)cc3)n1)OC[C@@H](CN1CCN(C)CC1)O2` [ABBV-467] here?
Answer: The ALK - IC50 was greater than 10 µM.

Question: What about the CSF1R - IC50 [2] of the same molecule?
Answer: The CSF1R - IC50 was greater than 10 µM.

Question: And the JNK1 - IC50 [3]?
Answer: Its JNK1 - IC50 is greater than 10 µM.

Question: What about the STK16 - IC50 [4] of the same molecule?
Answer: The STK16 - IC50 was greater than 10 µM.

Question: What about the DDR1 - IC50 [5] of the same molecule?
Answer: The DDR1 - IC50 was greater than 10 µM.

Question: What about the cdk2 - IC50 [6] of the same molecule?
Answer: Its cdk2 - IC50 is greater than 10 µM.

Question: And the CDK8/Cyclin C - IC50 [7]?
Answer: The CDK8/Cyclin C - IC50 was greater than 10 µM.

Question: And the EC50 ([8]; read-out: CHO Hamster - EC50)?
Answer: Its EC50 is greater than 10 µM.

Question: What about the EC50 ([8]; read-out: Cav1.2 (L-type) ND7/23 Mouse/Rat - EC50) of the same molecule?
Answer: Its EC50 is greater than 10 µM.

Question: And the IC50 ([8]; read-out: Cav1.2 (L-type) ND7/23 Mouse/Rat - IC50, Bioprofiling 6pt Antag, KCl)?
Answer: The IC50 was greater than 10 µM.

Question: What about the Ck1alpha1 - IC50 [9] of the same molecule?
Answer: Its Ck1alpha1 - IC50 is greater than 10 µM.

Question: What about the GRK5 - IC50 [10] of the same molecule?
Answer: The GRK5 - IC50 was greater than 10 µM.

Question: And the Lck - IC50 [11]?
Answer: Its Lck - IC50 is greater than 10 µM.

Question: And the TNK2 - IC50 [12]?
Answer: Its TNK2 - IC50 is greater than 10 µM.

Question: What about the Zipk - IC50 [13] of the same molecule?
Answer: The Zipk - IC50 was greater than 10 µM.

Question: What about the TBK1 - IC50 [14] of the same molecule?
Answer: Its TBK1 - IC50 is greater than 10 µM.

Question: What about the TAOK2 - IC50 [15] of the same molecule?
Answer: Its TAOK2 - IC50 is greater than 10 µM.

Question: What about the CDK9/Cyclin K - IC50 [16] of the same molecule?
Answer: The CDK9/Cyclin K - IC50 was 4.24 µM.

Question: And the BTK - IC50 [17]?
Answer: Its BTK - IC50 is greater than 10 µM.

Question: What about the MAP4K1 - IC50 [18] of the same molecule?
Answer: The MAP4K1 - IC50 was greater than 10 µM.

Question: And the CB1 CHO Human - EC50 ([19]; Bioprofiling 6pt Ag)?
Answer: The CB1 CHO Human - EC50 was greater than 10 µM.

Question: What about the CB1 CHO Human - IC50 ([19]; Bioprofiling 6pt Antag, WIN 55,212-2) of the same molecule?
Answer: Its CB1 CHO Human - IC50 is greater than 10 µM.

Question: And the cMET - IC50 [20]?
Answer: Its cMET - IC50 is greater than 10 µM.

Question: And the LTK - IC50 [21]?
Answer: Its LTK - IC50 is greater than 10 µM.

Question: What about the BRAF - IC50 [22] of the same molecule?
Answer: The BRAF - IC50 was greater than 10 µM.

Question: And the CSK - IC50 [23]?
Answer: The CSK - IC50 was greater than 10 µM.

Question: And the SGK1 - IC50 [24]?
Answer: Its SGK1 - IC50 is greater than 10 µM.

Question: And the Prkcn - IC50 [25]?
Answer: Its Prkcn - IC50 is greater than 10 µM.
